The source of these data is patent US9150568B2, “Compositions and methods for modulating FXR” (NOVARTIS AG, priority 2010, dated 2015).

This test concerns the target T1, human Farnesoid X Receptor (FXR) ligand binding domain (GST-FXR LBD) (Homo sapiens, UniProt Q96RI1).
T1 construct: purchased Invitrogen
T1 sequence (Q96RI1 193-472 isoform Q96RI1-2): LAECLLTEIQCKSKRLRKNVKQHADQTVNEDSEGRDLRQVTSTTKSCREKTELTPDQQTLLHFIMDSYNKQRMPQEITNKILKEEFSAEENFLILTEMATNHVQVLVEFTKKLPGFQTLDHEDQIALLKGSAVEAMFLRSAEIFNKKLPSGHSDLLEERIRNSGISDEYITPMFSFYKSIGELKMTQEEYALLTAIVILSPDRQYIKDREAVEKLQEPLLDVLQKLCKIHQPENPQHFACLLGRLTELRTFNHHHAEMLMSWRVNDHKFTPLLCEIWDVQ
The test is described as follows: Human GST-FXR LBD co-activator interaction assay (HTRF). It is filed as biochemical. Conditions: GST-FXR LBD / biotin-SRC-1 peptide FRET; response relative to GW4064; read-out: FXR Co-activator interaction assay (EC50). Put shortly: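 FRET (HTRF) read-out of ligand-induced binding between GST-FXR LBD and an SRC-1 peptide, detected with anti-GST cryptate and streptavidin-XL665 in buffer with 50 mM KF. Response % was normalized to DMSO and to the maximal GW4064 response. EC50 came from a four-parameter fit.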
Consider `COC(=O)c1ccnc(N2C3CC[C@H]2CC(OCc2c(-c4ccccc4OC(F)F)noc2C2CC2)C3)n1` (some centres unmarked) [Example 22-2A], for which the EC50 came out at 60 nM.

Regarding `O=C(O)c1ccnc(N2C3CC[C@H]2CC(OCc2c(-c4ccccc4OC(F)F)noc2C2CC2)C3)n1` (some centres unmarked) [Example 22-2B], the EC50 stood at 9 nM. As for `COC(=O)c1cccc(N2C3CC[C@H]2CC(OCc2c(-c4ccccc4OC(F)F)noc2C2CC2)C3)n1` (some centres unmarked) [Example 22-3], the EC50 was 10 nM. In the case of `COC(=O)c1cnc(N2C3CC[C@H]2CC(OCc2c(-c4ccccc4OC(F)F)noc2C2CC2)C3)cc1C` (some centres unmarked) [Example 22-4A], the EC50 worked out at 20 nM. `Cc1cc(N2C3CC[C@H]2CC(OCc2c(-c4ccccc4OC(F)F)noc2C2CC2)C3)ncc1C(=O)O` (some centres unmarked) [Example 22-4B]: the EC50 was 9 nM.

For the compound `COC(=O)c1cc(C)nc(N2C3CC[C@H]2CC(OCc2c(-c4ccccc4OC(F)F)noc2C2CC2)C3)n1` (some centres unmarked) [Example 22-5], the EC50 was 27 nM.

For `COC(=O)c1cnc(N2C3CC[C@H]2CC(OCc2c(-c4ccccc4OC(F)F)noc2C2CC2)C3)cc1Cl` (some centres unmarked) [Example 22-6A], the EC50 worked out at 56 nM. With `COC(=O)c1cnc(N2C3CC[C@H]2CC(OCc2c(-c4ccccc4OC(F)F)noc2C2CC2)C3)c(C)c1` (some centres unmarked) [Example 22-7A] the figure was 10 nM; with `Cc1cc(C(=O)O)cnc1N1C2CC[C@H]1CC(OCc1c(-c3ccccc3OC(F)F)noc1C1CC1)C2` (some centres unmarked) [Example 22-7B], 5 nM.

Consider `Cc1cc(C(=O)O)nc(N2C3CC[C@H]2CC(OCc2c(-c4ccccc4OC(F)F)noc2C2CC2)C3)n1` (some centres unmarked) [Example 22-8], for which the EC50 was found to be 5 nM. With `COC(=O)c1ccc(N2C3CC[C@H]2CC(OCc2c(-c4ccccc4OC(F)F)noc2C2CC2)C3)nn1` (some centres unmarked) [Example 22-9A], the EC50 amounted to 1030 nM. On to `O=C(O)c1ccc(N2C3CC[C@H]2CC(OCc2c(-c4ccccc4OC(F)F)noc2C2CC2)C3)nn1` (some centres unmarked) [Example 22-9B], for which the EC50 was 17 nM. Regarding `COC(=O)c1cnc(N2C3CC[C@H]2CC(OCc2c(-c4ccccc4OC(F)F)noc2C2CC2)C3)nc1` (some centres unmarked) [Example 22-10A], the EC50 turned out to be 360 nM. For `O=C(O)c1cnc(N2C3CC[C@H]2CC(OCc2c(-c4ccccc4OC(F)F)noc2C2CC2)C3)nc1` (some centres unmarked) [Example 22-10B] the value was 8 nM; for `COC(=O)c1cnc(N2C3CC[C@H]2CC(OCc2c(-c4ccccc4OC(F)F)noc2C2CC2)C3)cn1` (some centres unmarked) [Example 22-11A], 110 nM. With `O=C(O)c1cnc(N2C3CC[C@H]2CC(OCc2c(-c4ccccc4OC(F)F)noc2C2CC2)C3)cn1` (some centres unmarked) [Example 22-11B] the figure was 10 nM; with `COC(=O)c1ccc(N2[C@@H]3CC[C@H]2C[C@@H](OCc2c(-c4c(F)cccc4F)noc2C2CC2)C3)nc1` [Example 22-13A], 80 nM. For `O=C(O)c1ccc(N2[C@@H]3CC[C@H]2C[C@@H](OCc2c(-c4c(F)cccc4F)noc2C2CC2)C3)nc1` [Example 22-13B] the value was 9 nM; for `COC(=O)c1cnc(N2C3CC[C@H]2CC(OCc2c(-c4c(F)cccc4F)noc2C2CC2)C3)nc1` (some centres unmarked) [Example 22-14A], 70 nM.

`O=C(O)c1cnc(N2C3CC[C@H]2CC(OCc2c(-c4c(F)cccc4F)noc2C2CC2)C3)nc1` (some centres unmarked) [Example 22-14B]: the EC50 is 13 nM. With `COC(=O)c1cnc(N2C3CC[C@H]2CC(OCc2c(-c4c(F)cccc4F)noc2C2CC2)C3)cn1` (some centres unmarked) [Example 22-15A] the figure was 130 nM; with `O=C(O)c1cnc(N2[C@@H]3CC[C@H]2C[C@@H](OCc2c(-c4c(F)cccc4F)noc2C2CC2)C3)cn1` [Example 22-15B], 28 nM.

`COC(=O)c1cnc(N2[C@@H]3CC[C@H]2C[C@@H](OCc2c(-c4c(F)cccc4F)noc2C2CC2)C3)cc1C(F)(F)F` [Example 22-16A]: the EC50 was 160 nM. For `O=C(O)c1cnc(N2C3CC[C@H]2CC(OCc2c(-c4c(F)cccc4F)noc2C2CC2)C3)cc1C(F)(F)F` (some centres unmarked) [Example 22-16B] the value was 10 nM; for `COC(=O)c1cnc(N2[C@@H]3CC[C@H]2C[C@@H](OCc2c(-c4c(F)cccc4F)noc2C2CC2)C3)c(C2CC2)c1` [Example 22-17A], 65 nM; for `O=C(O)c1cnc(N2[C@@H]3CC[C@H]2C[C@@H](OCc2c(-c4c(F)cccc4F)noc2C2CC2)C3)c(C2CC2)c1` [Example 22-17B], 3 nM. Turning to `COC(=O)c1cc(C)nc(N2C3CC[C@H]2CC(OCc2c(-c4c(F)cccc4F)noc2C2CC2)C3)n1` (some centres unmarked) [Example 22-18A], the EC50 turned out to be 43 nM.

As to `Cc1cc(C(=O)O)nc(N2C3CC[C@H]2CC(OCc2c(-c4c(F)cccc4F)noc2C2CC2)C3)n1` (some centres unmarked) [Example 22-18B], the EC50 amounted to 18 nM. Regarding `COC(=O)c1cc(N2C3CC[C@H]2CC(OCc2c(-c4c(F)cccc4F)noc2C2CC2)C3)nc(Cl)n1` (some centres unmarked) [Example 22-19], the EC50 stood at 57 nM. `COC(=O)c1cc(Cl)nc(N2C3CC[C@H]2CC(OCc2c(-c4c(F)cccc4F)noc2C2CC2)C3)n1` (some centres unmarked) [Example 22-20]: the EC50 came to 25 nM. With `COC(=O)c1cnc(N2C3CC[C@H]2CC(OCc2c(-c4c(F)cccc4F)noc2C2CC2)C3)c(Br)c1` (some centres unmarked) [Example 22-21] the figure was 29 nM. With `COC(=O)c1cc(F)c(N2C3CC[C@H]2CC(OCc2c(-c4ccccc4OC(F)(F)F)noc2C2CC2)C3)c(F)c1` (some centres unmarked) [Example 24-1A] the figure was 40 nM. With `O=C(O)c1cc(F)c(N2C3CC[C@H]2CC(OCc2c(-c4ccccc4OC(F)(F)F)noc2C2CC2)C3)c(F)c1` (some centres unmarked) [Example 24-1B], the EC50 was found to be 8 nM.

In the case of `COC(=O)c1cc(F)c(N2C3CC[C@H]2CC(OCc2c(-c4ccccc4OC(F)F)noc2C2CC2)C3)c(F)c1` (some centres unmarked) [Example 25-1A], the EC50 is 28 nM. For `O=C(O)c1cc(F)c(N2C3CC[C@H]2CC(OCc2c(-c4ccccc4OC(F)F)noc2C2CC2)C3)c(F)c1` (some centres unmarked) [Example 25-1B] the value was 3 nM; for `COC(=O)c1cc(F)c(N2C3CC[C@H]2CC(OCc2c(-c4ccccc4C(F)(F)F)noc2C2CC2)C3)c(F)c1` (some centres unmarked) [Example 25-2A], 420 nM; for `O=C(O)c1cc(F)c(N2C3CC[C@H]2CC(OCc2c(-c4ccccc4C(F)(F)F)noc2C2CC2)C3)c(F)c1` (some centres unmarked) [Example 25-2B], 5 nM.

Consider `COC(=O)c1ccc(N2C3CC[C@H]2CC(OCc2c(-c4c(F)cccc4F)noc2C2CC2)C3)c(F)c1` (some centres unmarked) [Example 25-3A], for which the EC50 stood at 80 nM. With `O=C(O)c1ccc(N2C3CC[C@H]2CC(OCc2c(-c4c(F)cccc4F)noc2C2CC2)C3)c(F)c1` (some centres unmarked) [Example 25-3B] the figure was 0.9 nM; with `O=C(O)c1cc(F)c(N2[C@@H]3CC[C@H]2C[C@@H](OCc2c(-c4c(F)cccc4F)noc2C2CC2)C3)c(F)c1` [Example 25-4B], 2 nM. Turning to `COC(=O)c1ccc(N2C3CC[C@H]2CC(OCc2c(-c4ccccc4C(F)(F)F)noc2C2CC2)C3)c(F)c1` (some centres unmarked) [Example 25-5A], the EC50 was determined as 280 nM. For `O=C(O)c1ccc(N2C3CC[C@H]2CC(OCc2c(-c4ccccc4C(F)(F)F)noc2C2CC2)C3)c(F)c1` (some centres unmarked) [Example 25-5B] the value was 1 nM. For `COC(=O)c1ccc(N2C3CC[C@H]2CC(OCc2c(-c4ccccc4OC(F)F)noc2C2CC2)C3)c(F)c1` (some centres unmarked) [Example 25-6A] the value was 9 nM. With `O=C(O)c1ccc(N2C3CC[C@H]2CC(OCc2c(-c4ccccc4OC(F)F)noc2C2CC2)C3)c(F)c1` (some centres unmarked) [Example 25-6B] the figure was 3 nM.
